Laboratory results from patent publication US20060058339A1, “Compounds modulating c-kit activity and uses therefor” (priority 2004, published 2006).

Experiments:
[1] = target: T1, c-kit kinase domain (Homo sapiens, UniProt P10721); assay: c-kit kinase activity biochemical assay (AlphaScreen PY20 or 33P radiolabeled ATP detection); details: as measured by at least one of AlphaScreen or 33P ATP assay; ATP 10 μM in the AlphaScreen assay; read-out: IC50, inhibition of c-kit kinase activity
T1 construct: C-Kit kinase domain (starting amino acid M551, ending amino acid K949); made in house; host or cells: E. coli
T1 sequence (P10721 552-948 limits assumed): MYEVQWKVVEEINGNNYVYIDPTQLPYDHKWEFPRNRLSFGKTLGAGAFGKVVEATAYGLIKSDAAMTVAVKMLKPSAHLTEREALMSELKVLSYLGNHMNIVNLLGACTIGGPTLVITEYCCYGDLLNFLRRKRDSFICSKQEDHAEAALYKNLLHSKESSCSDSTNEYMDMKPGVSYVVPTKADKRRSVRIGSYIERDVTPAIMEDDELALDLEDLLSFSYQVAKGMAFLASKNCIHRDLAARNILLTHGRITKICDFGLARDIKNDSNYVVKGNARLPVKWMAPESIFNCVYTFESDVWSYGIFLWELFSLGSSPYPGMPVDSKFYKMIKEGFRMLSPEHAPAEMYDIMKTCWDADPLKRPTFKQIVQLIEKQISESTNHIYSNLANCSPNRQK
From the text: Compounds 1-1, 1-2, 1-3, and 1-4 of Table 1 were similarly assayed using a ^33P radiolabeled ATP for detection (Upstate USA, Charlottesville, Va.).

[2] = system: M-07e cell line stimulated by SCF; assay: M-07e SCF-stimulated cell proliferation (CellTiter-Glo); type: cell-based; details: 72 h, 100 ng/ml SCF, three days, luminescence (ATP content), read-out: IC50, growth of SCF stimulated M-07e cells
From the text: As one example, M-07e cell line (DSMZ catalog #ACC 104) is stimulated by SCF, which binds and activates c-kit tyrosine kinase receptor.

[3] = system: cells with activating c-kit mutations in the catalytic region; details: Ma et al., 2002, Blood 99:1741-1744; cited from earlier work

Row | IC50 [1] | Structure (SMILES) | IC50 [2] | inhibition of cells with c-kit mutations in the catalytic region [3]
1 | < 1000 nM | Cc1ccc(CNc2ccc(Cc3c[nH]c4ncccc34)cn2)cc1 [Compound 1-4, (4-methyl-benzyl)-[5-(1H-pyrrolo[2,3-b]pyridin-3-ylmethyl)-pyridin-2-yl]-amine] |  | 
2 | < 1000 nM | Fc1ccc(CNc2ccc(Cc3c[nH]c4ncccc34)cn2)cc1 [Compound 1-3, (4-fluoro-benzyl)-[5-(1H-pyrrolo[2,3-b]pyridin-3-ylmethyl)-pyridin-2-yl]-amine] |  | 
3 | < 1000 nM | Clc1ccc(CNc2ccc(Cc3c[nH]c4ncccc34)cn2)cc1 [Compound 1-2, (4-chloro-benzyl)-[5-(1H-pyrrolo[2,3-b]pyridin-3-ylmethyl)-pyridin-2-yl]-amine] | < 1000 nM | 
4 |  | Cc1ccc(NC(=O)c2ccc(CN3CCN(C)CC3)cc2)cc1Nc1nccc(-c2cccnc2)n1 [ST1571] |  | did not inhibit
